Test results taken from ChEMBL document CHEMBL4665675 (J Med Chem, 2020).
One block for each compound: values may come before it.

Assays:
Bos taurus = organism: Bos taurus; assay: Inhibition of bovine brain tubulin polymerization preincubated for 15 mins followed by GTP addition and measured for 30 mins by spectrophotometric method
KB 3-1 = assay: Antiproliferative activity against human KB-31 cells incubated for 96 hrs by spectrophotometric method; type: functional, cell-based; settings: KB 3-1, 96 h
[1] = Antiproliferative activity against human KB-8511 cells incubated for 96 hrs by spectrophotometric method; type: functional, cell-based; settings: KB-ChR-8-5-11, 96 h
BJAB = assay: Cytotoxicity against human BJAB cells; type: functional, cell-based
[2] = Inhibition of calf brain tubulin by turbidimetry; set-up: species or system Bos taurus
KB = assay: Antiproliferative activity against human KB cells incubated for 36 hrs; type: functional, cell-based
RPMI-7951 = assay: Antiproliferative activity against human RPMI-7951 cells incubated for 36 hrs; type: functional, cell-based; settings: RPMI-7951, 36 h
TE-671 = assay: Antiproliferative activity against human TE-671 cells incubated for 36 hrs; type: functional, cell-based; settings: TE-671, 36 h
[3] = Inhibition of bovine brain tubulin polymerization preincubated for 15 mins followed by GTP addition; set-up: species or system Bos taurus
A549 [4] = assay: Antiproliferative activity against human A549 cells incubated for 36 hrs; type: functional, cell-based; settings: A549, 36 h
HCT-8 = assay: Antiproliferative activity against human HCT-8 cells incubated for 36 hrs; type: functional, cell-based; settings: HCT-8, 36 h
P388 = assay: Antiproliferative activity against mouse P388 cells incubated for 36 hrs; type: functional, cell-based; settings: P388, 36 h
HCT-116 [5] = assay: Cytotoxicity against human HCT-116 cells by calcein AM reagent based fluorescence method; type: functional, cell-based
HCT-116 [6] = assay: Cytotoxicity against human HCT-116 cells by cell titer-glow assay; type: functional, cell-based
SF-268 [7] = assay: Cytotoxicity against human SF-268 cells by calcein AM reagent based fluorescence method; type: functional, cell-based
SF-268 [8] = assay: Cytotoxicity against human SF-268 cells by cell titer-glow assay; type: functional, cell-based
[9] = biological target: T1, carboxylesterase 1 (CES1) (Homo sapiens, UniProt P23141); assay: Substrate activity at human carboxylesterase 1 expressed in baculovirus infected Sf9 insect cells assessed as enzyme-catalysed compound cleavage incubated for 2 hrs by HPLC analysis; type: ADME; settings: read-out: Activity
T1 sequence (P23141 whole entry): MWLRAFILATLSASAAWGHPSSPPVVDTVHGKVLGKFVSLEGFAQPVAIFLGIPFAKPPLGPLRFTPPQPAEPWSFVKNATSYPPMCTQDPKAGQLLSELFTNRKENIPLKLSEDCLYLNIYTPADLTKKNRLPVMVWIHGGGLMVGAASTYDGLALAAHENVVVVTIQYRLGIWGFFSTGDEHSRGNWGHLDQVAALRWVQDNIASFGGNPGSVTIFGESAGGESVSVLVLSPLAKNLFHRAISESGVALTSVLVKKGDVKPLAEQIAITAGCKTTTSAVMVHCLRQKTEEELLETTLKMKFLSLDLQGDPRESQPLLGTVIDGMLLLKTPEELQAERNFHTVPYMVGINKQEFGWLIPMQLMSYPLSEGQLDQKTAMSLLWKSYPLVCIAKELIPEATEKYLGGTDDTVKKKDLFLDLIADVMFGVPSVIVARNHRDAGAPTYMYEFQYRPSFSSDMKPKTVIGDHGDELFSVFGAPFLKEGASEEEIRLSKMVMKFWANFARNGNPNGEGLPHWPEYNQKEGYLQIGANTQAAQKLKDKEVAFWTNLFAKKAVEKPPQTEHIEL

HeLa = assay: Cytotoxicity against human HeLa cells after 24 to 72 hrs by Cell Titer Blue assay; type: cell-based
PANC-1 [10] = assay: Antiproliferative activity against human PANC1 cells incubated for 72 hrs by WST assay; type: functional, cell-based; settings: PANC-1, 72 h
DU-145 = assay: Antiproliferative activity against human DU145 cells incubated for 72 hrs by WST assay; type: functional, cell-based; settings: DU-145, 72 h
Tubulin = assay: Inhibition of tubulin polymerization (unknown origin); type: protein-complex assay, Homo sapiens
PANC-1 [11] = assay: Cytotoxicity against human PANC1 cells incubated for 72 hrs by MTT assay; type: functional, cell-based; settings: PANC-1, 72 h
HaCaT = assay: Cytotoxicity against human HaCaT cells incubated for 72 hrs by MTT assay; type: functional, cell-based
HEK293 = assay: Cytotoxicity against HEK293 cells incubated for 48 hrs by MTT assay; type: cell-based; settings: Homo sapiens, HEK293, 48 h
MIA PaCa-2 = assay: Cytotoxicity against human Mia PaCa-2 cells incubated for 48 hrs by MTT assay; type: functional, cell-based; settings: MIA PaCa-2, 48 h
BXPC-3 = assay: Cytotoxicity against human BxPC-3 cells incubated for 48 hrs by MTT assay; type: functional, cell-based; settings: BXPC-3, 48 h
HT-29 = assay: Cytotoxicity against human HT-29 cells incubated for 48 hrs by MTT assay; type: functional, cell-based; settings: HT-29, 48 h
A549 [12] = assay: Cytotoxicity against human A549 cells incubated for 48 hrs by MTT assay; type: functional, cell-based; settings: A549, 48 h
[13] = Cytotoxicity against human BHP-1 cells incubated for 48 hrs by MTT assay; type: cell-based; settings: BHP1, 48 h
PC-3 = assay: Cytotoxicity against human PC-3 cells incubated for 48 hrs by MTT assay; type: functional, cell-based; settings: PC-3, 48 h
[14] = Cytotoxicity against human HGF-1 cells incubated for 48 hrs by MTT assay; type: cell-based; settings: HGF1, 48 h

inhibition (Bos taurus): 0%
IC50 (KB 3-1): > 1000 nM
SMILES: CCOC(=O)NCc1c2c(c(OC)c(OC)c1OC)-c1ccc(OC)c(=O)cc1[C@@H](NC(C)=O)CC2
IC50 [1]: > 1000 nM

inhibition (Bos taurus): 0%
IC50 (KB 3-1): > 1000 nM
SMILES: COc1c(CN(C)C(C)=O)c2c(c(OC)c1OC)-c1ccc(OC)c(=O)cc1[C@@H](NC(C)=O)CC2
IC50 [1]: > 1000 nM

SMILES: CCCCCCCCCCCC(=O)OCc1cn([C@H]2CCc3cc(OC)c(OC)c(OC)c3-c3ccc(OC)c(=O)cc32)nn1
IC50 (BJAB): 4 nM

IC50 [2]: 670 nM
SMILES: COc1ccc2c(c1)-c1nc(N)ncc1Cc1cc(OC)c(OC)c(OC)c1-2

IC50 (KB): 11 nM
IC50 [3]: 3700 nM
IC50 (A549 [4]): 0.001 nM
IC50 (HCT-8): 179 nM
IC50 (P388): 16 nM
SMILES: CCOC(=O)OC[C@H]1Cc2cc(OC)c(OC)c(OC)c2-c2ccc(SC)c(=O)cc21
IC50 (RPMI-7951): 0.001 nM
IC50 (TE-671): 0.001 nM

IC50 (KB): 140 nM
IC50 [3]: 2400 nM
IC50 (A549 [4]): 252 nM
IC50 (HCT-8): 160 nM
IC50 (P388): 22 nM
SMILES: C=C1Cc2cc(OC)c(OC)c(OC)c2-c2ccc(SC)c(=O)cc21
IC50 (RPMI-7951): 0.084 nM
IC50 (TE-671): 0.084 nM

SMILES: COc1cc2c(c(OC)c1OC)-c1ccc(OC)c(=O)cc1[C@@H](NC(=O)CN(OC)C1O[C@@H]3OC(=O)[C@@H](O)[C@@H]3[C@@H]1O)CC2 (stereo not given in full)
IC50 (HCT-116 [5]): 300 nM
IC50 (HCT-116 [6]): 300 nM
IC50 (SF-268 [7]): 300 nM
IC50 (SF-268 [8]): 300 nM

metabolised at 2 h [9]: 76%
SMILES: COc1cc2c(c(OC)c1OC)-c1ccc(NCCCCCCCC(=O)N[C@@H](CC(C)C)C(=O)OC3CCCC3)c(=O)cc1[C@@H](NC(C)=O)CC2
IC50 (HeLa): 4930 nM

IC50 (PANC-1 [10]): 7000 nM
IC50 (DU-145): 1400 nM
SMILES: COC(=O)NC1CCc2cc(OC)c(OC)c(OC)c2-c2ccc(F)cc21 (stereo not given)

metabolised at 2 h [9]: 13%
SMILES: COc1cc2c(c(OC)c1OC)-c1ccc(NCCC(O)C(=O)N[C@@H](CC(C)C)C(=O)OC3CCCC3)c(=O)cc1[C@@H](NC(C)=O)CC2 (stereo not given in full)
IC50 (HeLa): 230 nM

IC50 [2]: 470 nM
SMILES: COc1ccc2c(c1)-c1n[nH]cc1Cc1cc(OC)c(OC)c(OC)c1-2

inhibition (Bos taurus): 100%
SMILES: COc1c(CO)c2c(c(OC)c1OC)-c1ccc(OC)c(=O)cc1[C@@H](NC(C)=O)CC2
IC50 [1]: > 1000 nM

metabolised at 2 h [9]: 0%
SMILES: COc1cc2c(c(OC)c1OC)-c1ccc(NCCCC(=O)N[C@H](C(=O)OC3CCCC3)c3ccccc3)c(=O)cc1[C@@H](NC(C)=O)CC2
IC50 (HeLa): 1240 nM

IC50 [2]: 21000 nM
SMILES: COc1ccc2c(c1)NC(=O)CCc1cc(OC)c(OC)c(OC)c1-2

SMILES: COc1cc2c(c(OC)c1OC)-c1ccc(OC)c(=O)cc1[C@@H](NC(=O)CN(OC)C1C[C@H](O)[C@H](O)[C@@H](C)O1)CC2 (stereo not given in full)
IC50 (HCT-116 [5]): 300 nM
IC50 (HCT-116 [6]): 300 nM
IC50 (SF-268 [7]): 300 nM
IC50 (SF-268 [8]): 300 nM

SMILES: COc1cc2c(c(OC)c1OC)-c1ccc(OC)c(=O)cc1C(=O)CC2
IC50 (Tubulin): 1100 nM

inhibition (Bos taurus): 0%
IC50 (KB 3-1): > 1000 nM
SMILES: COc1c(CNC(C)=O)c2c(c(OC)c1OC)-c1ccc(OC)c(=O)cc1[C@@H](NC(C)=O)CC2
IC50 [1]: > 1000 nM

IC50 (PANC-1 [10]): 7900 nM
IC50 (DU-145): 760 nM
SMILES: COc1cc2c(c(OC)c1OC)-c1ccc(F)cc1C(NC(C)=O)CC2 (stereo not given)

IC50 (KB): 144 nM
IC50 [3]: 3600 nM
IC50 (A549 [4]): 240 nM
IC50 (HCT-8): 160 nM
IC50 (P388): 144 nM
SMILES: COc1cc2c(c(OC)c1OC)-c1ccc(SC)c(=O)cc1[C@@H](CO)C2
IC50 (RPMI-7951): 134 nM
IC50 (TE-671): 1320 nM

SMILES: C=C1COc2cc3c(cc21)-c1c(cc(OC)c(OC)c1OC)CC[C@@H]3NC(=O)CO
IC50 (PANC-1 [11]): 16 nM
IC50 (HaCaT): 3 nM

SMILES: COc1cc2c(c(OC)c1OC)-c1ccc(Nc3ccc(Cl)c(C(F)(F)F)c3)c(=O)cc1[C@@H](NC(C)=O)CC2
IC50 (HEK293): 35 nM
IC50 (MIA PaCa-2): 35 nM
IC50 (BXPC-3): 35 nM
IC50 (HT-29): 35 nM
IC50 (A549 [12]): 35 nM
IC50 [13]: 35 nM
IC50 (PC-3): 35 nM
IC50 [14]: 35 nM
